Measurements as given in patent US20150175655A1 (priority 2012, published 2015).

Experiments:
NS3 genotype 3a protease = biological target: T1, NS3 genotype 3a protease (UniProt Q81258); experiment: Ki determination, NS3 protease genotype 3a (fluorogenic depsipeptide substrate); type: biochemical, hepatitis C virus; settings: 200 pM enzyme, 20 μM NS4A peptide, 2 μM substrate, read-out: Ki 3A
T1 construct: Purified NS3 protease domain (amino acids 1-181) of the genotype 1b and 3a virus were generated as above; fused on or other part: N-terminal hexahistidine tag and rTEV protease cleavage site (vector p28-N6H-Tev-NS3(181)3)
T1 sequence (Q81258 1033-1663): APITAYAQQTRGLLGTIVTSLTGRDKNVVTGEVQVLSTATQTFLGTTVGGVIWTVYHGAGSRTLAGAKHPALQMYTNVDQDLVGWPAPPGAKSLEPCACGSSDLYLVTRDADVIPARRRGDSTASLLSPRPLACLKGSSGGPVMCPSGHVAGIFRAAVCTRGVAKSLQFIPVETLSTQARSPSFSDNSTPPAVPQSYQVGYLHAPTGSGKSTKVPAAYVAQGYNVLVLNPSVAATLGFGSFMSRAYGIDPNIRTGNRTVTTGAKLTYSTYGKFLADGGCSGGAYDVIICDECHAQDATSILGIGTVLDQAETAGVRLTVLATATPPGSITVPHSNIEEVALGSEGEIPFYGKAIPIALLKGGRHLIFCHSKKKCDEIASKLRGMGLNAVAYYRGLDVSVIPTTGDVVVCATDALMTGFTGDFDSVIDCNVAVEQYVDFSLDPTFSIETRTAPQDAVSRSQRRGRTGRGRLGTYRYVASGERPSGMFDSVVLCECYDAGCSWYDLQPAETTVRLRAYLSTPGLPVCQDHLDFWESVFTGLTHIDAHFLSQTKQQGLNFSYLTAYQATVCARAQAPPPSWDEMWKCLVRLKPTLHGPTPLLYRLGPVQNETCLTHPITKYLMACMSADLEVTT
In short: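 Refolded His-tagged NS3 protease domain (aa 1-181, genotype 3a) at 200 pM with 20 μM NS4A peptide was pre-incubated 1 h at RT with inhibitor (100 nM–5 pM, 3-fold), then 2 μM FRET depsipeptide substrate was added in HEPES/40% glycerol/10% DMSO buffer. Steady-state rates over 90-120 min (ex 340/em 490 nm) versus inhibitor concentration gave Ki.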

[1] = test system: genotype 1b (Con1) wild-type transient HCV replicon in Huh-7-derived cells; experiment: Transient-transfected HCV replicon EC50, genotype 1b wild type; type: cell-based; settings: Hepatitis C virus; transient-transfected replicon genotype 1b wild type, 72 h; read-out: EC50 1B WT
[2] = test system: genotype 1a (H77) wild-type transient HCV replicon in Huh-7-derived cells; experiment: Transient-transfected HCV replicon EC50, genotype 1a wild type; type: cell-based; settings: Hepatitis C virus; transient-transfected replicon genotype 1a wild type, 72 h; read-out: EC50 1A WT

SMILES	Ki (NS3 genotype 3a protease)	EC50 [1]	EC50 [2]
CC[C@@H]1[C@@H]2CN(C(=O)[C@H](C(C)(C)C)NC(=O)O[C@@H]3C[C@H]3CC/C=C/C(F)(F)C3Nc4ccc(C#N)cc4N=C3O2)[C@@H]1C(=O)N[C@]1(C(=O)NS(=O)(=O)C2(C)CC2)C[C@H]1C(F)F (stereo partly drawn) [Example 78, (1aR,5S,8S,9S,10R,19E,22aR)-5-tert-butyl-14-cyano-N-[(1R,2R)-2-(difluoromethyl)-1-{[(1-methylcyclopropyl)sulfonyl]carbamoyl}cyclopropyl]-9-ethyl-18,18-difluoro-3,6-dioxo-1,1a,3,4,5,6,9,10,17,17a,18,21,22,22a-tetradecahydro-8H-7,10-methanocyclopropa[18,19][1,10,3,6]dioxadiazacyclononadecino[11,12-b]quinoxaline-8-carboxamide]	0.82 nM	156 nM	189 nM
CC[C@@H]1[C@@H]2CN(C(=O)[C@H](C(C)(C)C)NC(=O)O[C@]3(C)CCC[C@H]3CCCCCc3nc4ccc(OC)cc4nc3O2)[C@@H]1C(=O)N[C@]1(C(=O)NS(=O)(=O)C2(C)CC2)C[C@H]1CC(F)F [Example 41, (3aR,7S,10S,11S,12R,24aR)-7-tert-butyl-N-[(1R,2S)-2-(2,2-difluoroethyl)-1-{[(1-methylcyclopropyl)sulfonyl]carbamoyl}cyclopropyl]-11-ethyl-16-methoxy-3a-methyl-5,8-dioxo-1,2,3,3a,5,6,7,8,11,12,20,21,22,23,24,24a-hexadecahydro-10H-9,12-methanocyclopenta[18,19][1,10,3,6]dioxadiazacyclononadecino[11,12-b]quinoxaline-10-carboxamide]	0.79 nM	154 nM	164 nM
COc1ccc2nc3c(nc2c1)O[C@H]1CN(C(=O)[C@H](C(C)(C)C)NC(=O)O[C@@H]2C[C@H]2CCCCC3F)[C@H](C(=O)N[C@]2(C(=O)NS(=O)(=O)C3(C)CC3)C[C@H]2C(F)F)[C@@H]1C (stereo partly drawn) [Example 47, (1aR,5S,8S,9S,10R,22aR)-5-tert-butyl-N-[(1R,2R)-2-(difluoromethyl)-1-{[(1-methylcyclopropyl)sulfonyl]carbamoyl}cyclopropyl]-18-fluoro-14-methoxy-9-methyl-3,6-dioxo-1,1a,3,4,5,6,9,10,18,19,20,21,22,22a-tetradecahydro-8H-7,10-methanocyclopropa[18,19][1,10,3,6]dioxadiazacyclononadecino[11,12-b]quinoxaline-8-carboxamide]	0.19 nM	2 nM	5.4 nM
C[C@@H]1[C@@H]2CN(C(=O)[C@H](C(C)(C)C)NC(=O)O[C@@H]3C[C@H]3CCCCC(F)(F)c3nc4ccc(Cl)cc4nc3O2)[C@@H]1C(=O)N[C@]1(C(=O)NS(=O)(=O)C2(C)CC2)C[C@H]1C(F)F [Example 88, (1aR,5S,8S,9S,10R,22aR)-5-tert-butyl-14-chloro-N-[(1R,2R)-2-(difluoromethyl)-1-{[(1-methylcyclopropyl)sulfonyl]carbamoyl}cyclopropyl]-18,18-difluoro-9-methyl-3,6-dioxo-1,1a,3,4,5,6,9,10,18,19,20,21,22,22a-tetradecahydro-8H-7,10-methanocyclopropa[18,19][1,10,3,6]dioxadiazacyclononadecino[11,12-b]quinoxaline-8-carboxamide]	0.29 nM	5.5 nM	5 nM
